Test results reported in patent publication US10053485B2, “Cytotoxic agents that preferentially target leukemia inhibitory factor (LIF) for the treatment of malignancies and as new contraceptive agents” (Evestra, Inc., priority 2015, dated 2018).

How the values were obtained:
SK-MEL-5 = assay: NCI-60 screen, Melanoma panel; assay type: cell-based; details: Homo sapiens, SK-MEL-5, 48 h
786-0 = assay: NCI-60 screen, Renal Cancer panel; assay type: cell-based; details: Homo sapiens, 786-0, 48 h
[1] = test system: MCF-7 (ER+ Breast Cancer); assay: Short term (72 h) cytotoxicity assay; assay type: cell-based; details: Homo sapiens, MCF7; MCF-7, 72 h cytotoxicity
MDA-MB-435 = assay: NCI-60 screen, Melanoma panel; assay type: cell-based; details: Homo sapiens, MDA-MB-435, 48 h
SNB-19 = assay: NCI-60 screen, CNS Cancer panel; assay type: cell-based; details: Homo sapiens, SNB-19, 48 h
ACHN = assay: NCI-60 screen, Renal Cancer panel; assay type: cell-based; details: Homo sapiens, 48 h
SK-MEL-28 = assay: NCI-60 screen, Melanoma panel; assay type: cell-based; details: Homo sapiens, SK-MEL-28, 48 h
DU-145 = assay: NCI-60 screen, Prostate Cancer panel; assay type: cell-based; details: Homo sapiens, DU-145, 48 h, read-out: GI50 (log10GI50) (converted)
HS 578T = assay: NCI-60 screen, Breast Cancer panel; assay type: cell-based; details: Homo sapiens, 48 h
UACC-62 = assay: NCI-60 screen, Melanoma panel; assay type: cell-based; details: Homo sapiens, UACC-62, 48 h
MOLT-4 = assay: NCI-60 screen, Leukemia panel; assay type: cell-based; details: Homo sapiens, MOLT-4, 48 h
U251 (Glioma) = assay: Short term (72 h) cytotoxicity assay; assay type: cell-based, human; details: Homo sapiens, U-251; U251, 72 h cytotoxicity
T-47D = assay: NCI-60 screen, Breast Cancer panel; assay type: cell-based; details: Homo sapiens, T47D, 48 h
HOP-62 = assay: NCI-60 screen, Non-Small Cell Lung Cancer panel; assay type: cell-based; details: Homo sapiens, HOP-62, 48 h, read-out: GI50 (log10GI50) (converted)
UACC-257 = assay: NCI-60 screen, Melanoma panel; assay type: cell-based; details: Homo sapiens, UACC-257, 48 h
[2] = test system: various cancer cells lines; assay: Cytotoxicity assays in various cancer cell lines; assay type: cell-based; details: in words
Procedure: Briefly, 5×10^3 cells were seeded in 96-well plates and incubated with compounds (0.0001-10 μmol/L) or dimethyl sulfoxide (DMSO; 0.02% v/v) for 24, 48, and 72 hours at 37° C. and cell viability was measured using a Fluoroscan plate reader.

RXF 393 = assay: NCI-60 screen, Renal Cancer panel; assay type: cell-based; details: Homo sapiens, RXF 393, 48 h
SF-539 = assay: NCI-60 screen, CNS Cancer panel; assay type: cell-based; details: Homo sapiens, SF-539, 48 h
UO-31 = assay: NCI-60 screen, Renal Cancer panel; assay type: cell-based; details: Homo sapiens, UO-31, 48 h
MDA-MB-231 (TNBC cells) = assay: Short term (72 h) cytotoxicity assay; assay type: cell-based; details: Homo sapiens; MDA-MB-231, 72 h cytotoxicity
[3] = read-out: GI50 (log10GI50) (converted)
[4] = read-out: LC50 (log10LC50) (converted)

SMILES: C#CC(F)(F)[C@]1(O)CCC2C3CCC4=CC(=O)CCC4=C3C(c3ccc(C4CC4)cc3)C[C@@]21C (stereo partly drawn) [EC330, 17α-(1,1-difluoro-2-propyn-1-yl)-17β-hydroxy-11β-[4-p-(cyclopropyl)phenyl]estra-4,9-dien-3-one]
- GI50 (SK-MEL-5; [3]): 4.68 µM
- CC50 (SK-MEL-5; [4]): 43.7 µM
- GI50 (786-0; [3]): < 0.01 µM
- CC50 (786-0; [4]): < 0.01 µM
- IC50 [1]: 0.1 µM
- GI50 (MDA-MB-435; [3]): 1.86 µM
- CC50 (MDA-MB-435; [4]): > 100 µM
- GI50 (SNB-19; [3]): 3.8 µM
- CC50 (SNB-19; [4]): > 100 µM
- GI50 (ACHN; [3]): 1.51 µM
- CC50 (ACHN; [4]): > 100 µM
- GI50 (SK-MEL-28; [3]): 1.78 µM
- CC50 (SK-MEL-28; [4]): 7.76 µM
- GI50 (DU-145): 1.91 µM
- GI50 (HS 578T; [3]): 2.29 µM
- CC50 (HS 578T; [4]): > 100 µM
- GI50 (UACC-62; [3]): 1.95 µM
- CC50 (UACC-62; [4]): > 100 µM
- GI50 (MOLT-4; [3]): 1.7 µM
- CC50 (MOLT-4; [4]): > 100 µM
- IC50 (U251 (Glioma)): 0.02 µM
- GI50 (T-47D; [3]): < 0.01 µM
- CC50 (T-47D; [4]): > 100 µM
- GI50 (HOP-62): 0.0141 µM
- GI50 (UACC-257; [3]): 7.08 µM
- CC50 (UACC-257; [4]): > 100 µM
- IC50's in cytotoxicity assays [2]: low nanomolar
- GI50 (RXF 393; [3]): 1.07 µM
- CC50 (RXF 393; [4]): > 100 µM
- GI50 (SF-539; [3]): < 0.01 µM
- CC50 (SF-539; [4]): 0.0525 µM
- GI50 (UO-31; [3]): < 0.01 µM
- CC50 (UO-31; [4]): < 0.01 µM
- IC50 (MDA-MB-231 (TNBC cells)): 0.034 µM
